Measured values as given in ChEMBL document CHEMBL5257084, “Novel inhibitors of Rickettsia prowazekii methionine aminopeptidase from the Malaria Box” (Bioorg Med Chem Lett, 2023).

Key:
[1] = Inhibition of Rickettsia prowazekii Methionine aminopeptidase 1; format: single protein
[2] = system: Rickettsia prowazekii; assay: Inhibition of Rickettsia prowazekii Methionine aminopeptidase 1 at 10 uM relative to control

Row | SMILES | IC50 [1] [µM] | inhibition [2] [%]
1 | CCn1c(CN2CCN(Cc3ccccc3)CC2)nc2cc(NC(=O)c3cccs3)ccc21 | 9 | > 50
2 | O=C(O)c1ccc(-c2ccccc2Cl)o1 | 2.4 | –
3 | CC(C)OCc1cc(CN2CCN(c3cccc(Cl)c3)CC2)c(O)c2ncccc12 | 3.8 | > 50
4 | Cc1ccc(N2C3c4ccccc4N(S(=O)(=O)c4ccc(C)cc4)C2c2ccccc2N3S(=O)(=O)c2ccc(C)cc2)cc1 | 0.8 | > 50
5 | O=C(NC(c1ccccc1)c1ccc2cccnc2c1O)c1ccccc1 (stereo not given) | 12 | > 50
6 | CSC1=N/C(=N\c2c(C)cccc2C)C2(CCC(C(C)(C)C)CC2)N1c1ccc(Cl)cc1 (stereo not given) | 9 | > 50
7 | COc1cccc(NC(=O)[C@H](C(C)C)n2c(=O)[nH]c3ccccc3c2=O)c1 | 22 | > 50
8 | COc1ccc(C2=C(c3ccc(OC)cc3)C3(c4ccccc4)C(=O)C2(c2ccccc2)C2C(=O)N(c4ccc(C)cc4)C(=O)C23)cc1 (stereo not given) | 4 | > 50
9 | c1ccc(Cn2c(/N=N/c3c(Nc4ccccc4)ccc4ccccc34)nc3ccccc32)cc1 | 1.9 | > 50
10 | COc1ccc(/C=C2\SC(=N)N(c3ccccc3OC)C2=O)cc1 | 4.4 | > 50
11 | COc1ccc(-c2c(C)nn3c(N)c(C#N)cnc23)cc1OC | 9 | > 50
12 | O=C(NCC(c1ccsc1)N1CCCCCC1)c1ccc(C(F)(F)F)cc1 (stereo not given) | 15 | > 50
13 | CCCc1c(CC)c(=N)c2ccccc2n1C | 1.6 | > 50
